The source of these data is patent US8546320B2, “Hsp9O-targeted anti-cancer chimeric peptide” (Kyoto University, priority 2008, dated 2013).

Where a SMILES comes first, the peptide text is derived from it.

The subject of series [1] is Caki-1. The format is cell-based, human. The settings on record: Caki-1; for Anti-cancer activity (% relative to wild-type peptide) / Decrease in cell survival rate (% relative to wild-type peptide): wild-type peptide = 100%. The method, then: A total of 3×10^3 cells were inoculated per well on a 96 well plate and cultured in a medium containing 10% FBS for 24 hours, and incubated with 100 μl of a peptide having a gradual increase in concentration at 37° C. for 48 to 72 hours. The survival rate of the cells was measured by using WST-8 solution (Cell Count Reagent SF; Nacalai Tesque, Inc.).
Respective variant peptides were subjected to cell viability assay. Specifically, Caki-1 (American Type Culture Collection (Manassas, Va.) was inoculated in a total amount of 3×10^3 cells per well on a 96 well plate (Nunc™); the cells were cultured in a medium (DMEM (Tesque, Inc.) containing 10% FBS (fetal bovine serum; Biowest)) for 24 hours and incubated with 100 μl of a peptide having a gradual increase in concentration at 37° C. for 48 to 72 hours. The cell survival rate was measured by using WST-8 solution (Cell Count Reagent SF; Nacalai Tesque, Inc.) and compared with that of the wild-type Antp-TPR peptide.
Respective variant peptides were subjected to cell viability assay. Specifically, Caki-1 (American Type Culture Collection (Manassas, Va.) was inoculated in a total amount of 3×10^3 cells per well on a 96 well plate (Nunc™); the cells were cultured in a medium containing 10% FBS for 24 hours and incubated with 100 μl of a peptide having a gradual increase in concentration at 37° C. for 48 to 72 hours. The cell survival rate was measured by using WST-8 solution (Cell Count Reagent SF; Nacalai Tesque, Inc.) and compared with that of the wild-type Antp-TPR peptide.

Series [2] deals with cancer cells. The series is described as follows: Cell viability assay, summary statements on cancer cells. The format is cell-based. As to conditions: for effect compared with the wild-type protein (summary of mutations): single mutation in TPR or Antp region of Antp-TPR.
Series [3] deals with U937. The experiment in a line: cells. It is filed as cell-based, human. As to conditions: U937; for Cell Survival Rate (%): concentration not given; for Anti-cancer activity (% relative to wild-type peptide) / Decrease in cell survival rate (% relative to wild-type peptide): wild-type peptide = 100%. The procedure: A total of 3×10^3 cells per well were inoculated onto a 96 well plate, and incubated in a medium containing 10% FBS with 100 μl of a peptide diluted stepwise at 37° C. for 48 to 72 hours. The survival rate of the cells was measured by using WST-8 solution (Cell Count Reagent SF; Nacalai Tesque, Inc.).

Consider `CC[C@H](C)[C@H](NC(=O)[C@H](CCCNC(=N)N)NC(=O)[C@H](C)NC(=O)[C@H](Cc1ccc(O)cc1)NC(=O)[C@H](C)NC(=O)[C@H](CCCCN)NC(=O)[C@H](CCCCN)NC(=O)[C@H](CCCCN)NC(=O)[C@H](Cc1c[nH]c2ccccc12)NC(=O)[C@H](CCCNC(=N)N)NC(=O)[C@H](CCSC)NC(=O)[C@H](CCCNC(=N)N)NC(=O)[C@H](CCCNC(=N)N)NC(=O)[C@H](CC(N)=O)NC(=O)[C@H](CCC(N)=O)NC(=O)[C@H](Cc1ccccc1)NC(=O)[C@H](Cc1c[nH]c2ccccc12)NC(=O)[C@@H](NC(=O)[C@H](CCCCN)NC(=O)[C@@H](NC(=O)[C@H](CCC(N)=O)NC(=O)[C@@H](N)CCCNC(=N)N)[C@@H](C)CC)[C@@H](C)CC)C(=O)NCC(=O)N[C@@H](CC(N)=O)C(=O)N[C@@H](CO)C(=O)N[C@@H](Cc1ccc(O)cc1)C(=O)N[C@@H](Cc1ccccc1)C(=O)N[C@@H](CCCCN)C(=O)O` [Antp K13R-TPR] (H-RQIKIWFQNRRMRWKKKAYARIGNSYFK-OH; N-terminus and C-terminus assumed), for which, in series [1], the “killing effect compared with the wild-type peptide” value was “stronger than that of the wild-type peptide”, the “Anti-cancer activity (% relative to wild-type peptide)” value came out at 108.64% and the “Decrease in cell survival rate (% relative to wild-type peptide)” value (shortened to “Decrease … (% relative to wild-type peptide)”) is 360.96%. Also, in series [2], the “effect compared with the wild-type protein (summary of mutations)” value is reported as “effect similar to that of the wild-type protein”.

For the molecule `CC[C@H](C)[C@H](NC(=O)[C@H](CCCNC(=N)N)NC(=O)[C@H](C)NC(=O)[C@H](Cc1ccc(O)cc1)NC(=O)[C@H](C)NC(=O)[C@H](CCCCN)NC(=O)[C@H](CCCCN)NC(=O)[C@H](CCCCN)NC(=O)[C@H](Cc1c[nH]c2ccccc12)NC(=O)[C@H](CCCCN)NC(=O)[C@H](CCSC)NC(=O)[C@H](CCCNC(=N)N)NC(=O)[C@H](CCCNC(=N)N)NC(=O)[C@H](CC(N)=O)NC(=O)[C@H](CCC(N)=O)NC(=O)[C@H](Cc1ccccc1)NC(=O)[C@H](Cc1c[nH]c2ccccc12)NC(=O)[C@@H](NC(=O)[C@H](CCCCN)NC(=O)[C@@H](NC(=O)[C@H](CCC(N)=O)NC(=O)[C@@H](N)CCCCN)[C@@H](C)CC)[C@@H](C)CC)C(=O)NCC(=O)N[C@@H](CC(N)=O)C(=O)N[C@@H](CO)C(=O)N[C@@H](Cc1ccc(O)cc1)C(=O)N[C@@H](Cc1ccccc1)C(=O)N[C@@H](CCCCN)C(=O)O` [Antp-R1K-TPR] (H-KQIKIWFQNRRMKWKKKAYARIGNSYFK-OH; N-terminus and C-terminus assumed), in series [1], the “Anti-cancer activity (% relative to wild-type peptide)” value turned out to be 64.10% and the “Decrease … (% relative to wild-type peptide)” value is 24.98%. Also, the “effect compared with the wild-type protein (summary of mutations)” value in series [2] is “effective but with an effect lower than the wild-type protein”.

In the case of `CC[C@H](C)[C@H](NC(=O)[C@H](CCCNC(=N)N)NC(=O)[C@H](C)NC(=O)[C@H](Cc1ccc(O)cc1)NC(=O)[C@H](C)NC(=O)[C@H](CCCCN)NC(=O)[C@H](C)NC(=O)[C@@H](NC(=O)[C@H](CCC(N)=O)NC(=O)[C@H](CCCNC(=N)N)NC(=O)[C@H](CCCCN)NC(=O)[C@H](CCCCN)NC(=O)[C@H](Cc1c[nH]c2ccccc12)NC(=O)[C@H](CCCCN)NC(=O)[C@H](CCSC)NC(=O)[C@H](CCCNC(=N)N)NC(=O)[C@H](CCCNC(=N)N)NC(=O)[C@H](CC(N)=O)NC(=O)[C@H](CCC(N)=O)NC(=O)[C@H](Cc1ccccc1)NC(=O)[C@H](Cc1c[nH]c2ccccc12)NC(=O)[C@@H](NC(=O)[C@H](CCCCN)NC(=O)[C@@H](NC(=O)[C@H](CCC(N)=O)NC(=O)[C@@H](N)CCCNC(=N)N)[C@@H](C)CC)[C@@H](C)CC)[C@@H](C)CC)C(=O)NCC(=O)N[C@@H](CC(N)=O)C(=O)N[C@@H](CO)C(=O)N[C@@H](Cc1ccc(O)cc1)C(=O)N[C@@H](Cc1ccccc1)C(=O)N[C@@H](CCCCN)C(=O)O` [Antp-TPR slong] (H-RQIKIWFQNRRMKWKKRQIAKAYARIGNSYFK-OH; N-terminus and C-terminus assumed), the “killing effect compared with the wild-type peptide” value in series [1] is recorded as “retained the effect of wild-type peptide”.

`CC[C@H](C)[C@H](NC(=O)[C@H](CCCNC(=N)N)NC(=O)[C@H](C)NC(=O)[C@H](Cc1ccc(O)cc1)NC(=O)[C@H](C)NC(=O)[C@H](CCCCN)NC(=O)[C@H](CCCCN)NC(=O)[C@H](CCCCN)NC(=O)[C@H](Cc1ccc(O)cc1)NC(=O)[C@H](CCCCN)NC(=O)[C@H](CCSC)NC(=O)[C@H](CCCNC(=N)N)NC(=O)[C@H](CCCNC(=N)N)NC(=O)[C@H](CC(N)=O)NC(=O)[C@H](CCC(N)=O)NC(=O)[C@H](Cc1ccccc1)NC(=O)[C@H](Cc1c[nH]c2ccccc12)NC(=O)[C@@H](NC(=O)[C@H](CCCCN)NC(=O)[C@@H](NC(=O)[C@H](CCC(N)=O)NC(=O)[C@@H](N)CCCNC(=N)N)[C@@H](C)CC)[C@@H](C)CC)C(=O)NCC(=O)N[C@@H](CC(N)=O)C(=O)N[C@@H](CO)C(=O)N[C@@H](Cc1ccc(O)cc1)C(=O)N[C@@H](Cc1ccccc1)C(=O)N[C@@H](CCCCN)C(=O)O` [Antp W14Y-TPR] (H-RQIKIWFQNRRMKYKKKAYARIGNSYFK-OH; N-terminus and C-terminus assumed): in series [1], the “Anti-cancer activity (% relative to wild-type peptide)” value was found to be 83.36% and the “Decrease … (% relative to wild-type peptide)” value is given as 41.80%. The “effect compared with the wild-type protein (summary of mutations)” value in series [2] is on record as “effect similar to that of the wild-type protein”.

Consider “RQIKIWFQNRRMKWKKKAYAAIGNSYFK (Antp-TPR R5A peptide) [Antp-R5A]”, for which, in series [3], the “Cell Survival Rate (%)” value turned out to be 40.24%, the “Anti-cancer activity (% relative to wild-type peptide)” value is 77.85% and the “Decrease … (% relative to wild-type peptide)” value came out at 57.74%. The “effect compared with the wild-type protein (summary of mutations)” value in series [2] is “effective but with a lower effect than the wild-type protein”.

Take `CC[C@H](C)[C@H](NC(=O)[C@H](CCCNC(=N)N)NC(=O)[C@H](C)NC(=O)[C@H](Cc1ccc(O)cc1)NC(=O)[C@H](C)NC(=O)[C@H](CCCCN)NC(=O)[C@H](CCCCN)NC(=O)[C@H](CCCCN)NC(=O)[C@H](Cc1c[nH]c2ccccc12)NC(=O)[C@H](CCCCN)NC(=O)[C@H](CCSC)NC(=O)[C@H](CCCNC(=N)N)NC(=O)[C@H](CCCNC(=N)N)NC(=O)[C@H](CC(N)=O)NC(=O)[C@H](CCC(N)=O)NC(=O)[C@H](Cc1ccccc1)NC(=O)[C@H](Cc1c[nH]c2ccccc12)NC(=O)[C@@H](NC(=O)[C@H](CCCCN)NC(=O)[C@@H](NC(=O)[C@H](CCC(N)=O)NC(=O)[C@@H](N)CCCNC(=N)N)[C@@H](C)CC)[C@@H](C)CC)C(=O)NCC(=O)N[C@@H](CC(N)=O)C(=O)N[C@@H](CO)C(=O)NCC(=O)NCC(=O)NCC(=O)O` (H-RQIKIWFQNRRMKWKKKAYARIGNSGGG-OH): the “cytotoxic activity / cell-killing effect” value in series [2] is “the cytotoxic activity was lower”.

As for `CC[C@H](C)[C@H](NC(=O)[C@H](CCCCN)NC(=O)[C@@H](NC(=O)[C@H](CCC(N)=O)NC(=O)[C@@H](N)CCCNC(=N)N)[C@@H](C)CC)C(=O)N[C@@H](Cc1c[nH]c2ccccc12)C(=O)N[C@@H](Cc1ccccc1)C(=O)N[C@@H](CCC(N)=O)C(=O)N[C@@H](CC(N)=O)C(=O)N[C@@H](CCCNC(=N)N)C(=O)N[C@@H](CCCNC(=N)N)C(=O)N[C@@H](CCSC)C(=O)N[C@@H](CCCCN)C(=O)N[C@@H](Cc1c[nH]c2ccccc12)C(=O)N[C@@H](CCCCN)C(=O)N[C@@H](CCCCN)C(=O)N[C@@H](CCCCN)C(=O)N[C@@H](C)C(=O)N[C@@H](Cc1ccc(O)cc1)C(=O)N[C@@H](C)C(=O)N[C@@H](C)C(=O)N[C@@H](C)C(=O)NCC(=O)N[C@@H](CC(N)=O)C(=O)N[C@@H](CO)C(=O)N[C@@H](Cc1ccc(O)cc1)C(=O)N[C@@H](Cc1ccccc1)C(=O)N[C@@H](CCCCN)C(=O)O` (H-RQIKIWFQNRRMKWKKKAYAAAGNSYFK-OH; N-terminus and C-terminus assumed), the “cytotoxic activity / cell-killing effect” value in series [2] is recorded as “the cytotoxic activity was lower”.

As for “RQIKIWFQNRRMKWKKKGYGRIGNYYYK (Antp-TPR A2G,A4G,S9Y,F11Y peptide) [Antp-A2G, A4G, S9Y, F11Y]”, in series [3], the “killing effect compared with the wild-type peptide” value is reported as “increase in effect”, the “Cell Survival Rate (%)” value was determined as 21.14%, the “Anti-cancer activity (% relative to wild-type peptide)” value came to 102.73% and the “Decrease … (% relative to wild-type peptide)” value is listed as 109.90%.

On to “RQIKIWFQNRRMKWKKKAYARAGNSYFK (Antp-TPR I6A peptide) [Antp-I6A]”, for which, in series [3], the “killing effect compared with the wild-type peptide” value is “increase in effect”, the “Cell Survival Rate (%)” value was found to be 7.48%, the “Anti-cancer activity (% relative to wild-type peptide)” value amounted to 120.54% and the “Decrease … (% relative to wild-type peptide)” value was found to be 310.88%. Moreover, in series [2], the “effect compared with the wild-type protein (summary of mutations)” value was “effect higher than the wild-type protein”.

For “RQIKIWFQNRRMKWKKRKFSAAIGYNKY (Antp-scramble peptide) [reference compound]”, in series [3], the “Cell Survival Rate (%)” value stood at 95.30%, the “Anti-cancer activity (% relative to wild-type peptide)” value is reported as 6.13% and the “Decrease … (% relative to wild-type peptide)” value is listed as 24.39%.
